Our source for the Ki, Activity and Km values is ChEMBL document CHEMBL2074317, “Functional characterization of an organic cation transporter (hOCT1) in a transiently transfected human cell line (HeLa)” (J Pharmacol Exp Ther, 1998).

Broadly, the Ki is a measure of affinity in units of concentration, obtained from inhibition or displacement. A low value points to a stronger hold on the target. For orientation: Km means the substrate concentration at which the rate is half of its maximum.

B1: Solute carrier family 22 member 1 (Homo sapiens) (protein)
chain: MPTVDDILEQVGESGWFQKQAFLILCLLSAAFAPICVGIVFLGFTPDHHCQSPGVAELSQRCGWSPAEELNYTVPGLGPAGEAFLGQCRRYEVDWNQSALSCVDPLASLATNRSHLPLGPCQDGWVYDTPGSSIVTEFNLVCADSWKLDLFQSCLNAGFLFGSLGVGYFADRFGRKLCLLGTVLVNAVSGVLMAFSPNYMSMLLFRLLQGLVSKGNWMAGYTLITEFVGSGSRRTVAIMYQMAFTVGLVALTGLAYALPHWRWLQLAVSLPTFLFLLYYWCVPESPRWLLSQKRNTEAIKIMDHIAQKNGKLPPADLKMLSLEEDVTEKLSPSFADLFRTPRLRKRTFILMYLWFTDSVLYQGLILHMGATSGNLYLDFLYSALVEIPGAFIALITIDRVGRIYPMAMSNLLAGAACLVMIFISPDLHWLNIIIMCVGRMGITIAIQMICLVNAELYPTFVRNLGVMVCSSLCDIGGIITPFIVFRLREVWQALPLILFAVLGLLAAGVTLLLPETKGVALPETMKDAENLGRKAKPKENTIYLKVQTSEPSGT

The target of one data set is T1, Solute carrier family 22 member 1 (Homo sapiens, UniProt O15245).
T1 sequence (O15245 whole entry): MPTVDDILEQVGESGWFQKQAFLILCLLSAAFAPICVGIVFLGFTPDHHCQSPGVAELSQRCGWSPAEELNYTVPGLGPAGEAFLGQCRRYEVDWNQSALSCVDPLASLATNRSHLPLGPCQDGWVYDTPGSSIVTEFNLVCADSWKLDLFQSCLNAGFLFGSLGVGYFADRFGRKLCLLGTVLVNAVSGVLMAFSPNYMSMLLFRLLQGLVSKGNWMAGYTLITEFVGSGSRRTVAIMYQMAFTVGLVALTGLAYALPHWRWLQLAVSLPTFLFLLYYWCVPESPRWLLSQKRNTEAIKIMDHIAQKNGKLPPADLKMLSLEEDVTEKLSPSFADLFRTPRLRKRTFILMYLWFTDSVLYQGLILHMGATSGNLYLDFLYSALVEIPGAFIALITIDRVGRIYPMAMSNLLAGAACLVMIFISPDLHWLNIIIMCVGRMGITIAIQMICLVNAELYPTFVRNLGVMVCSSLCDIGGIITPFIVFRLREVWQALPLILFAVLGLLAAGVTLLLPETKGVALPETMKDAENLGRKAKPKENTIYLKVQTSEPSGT
Description: TP_TRANSPORTER: inhibition of TEA uptake in OCT1-expressing HeLa cells. The data set is classed as functional, cell-based.
`CCN1/C(=C/c2ccc3ccccc3[n+]2CC)C=Cc2ccccc21` came in with an inhibition constant Ki of 2.73 µM. `C[n+]1ccc(-c2ccccc2)cc1` displayed a Ki of 12.3 µM. As to `CCCC(=O)Nc1ccc(OCC(O)CNC(C)C)c(C(C)=O)c1` (stereo not given) [ACEBUTOLOL], the affinity corresponds to a Ki of 95.8 µM. The molecule `CN/C(=N/CCSCc1nc[nH]c1C)NC#N` [CIMETIDINE] registered a Ki of 166 µM. For the molecule `Clc1cccc(Cl)c1N=C1NCCN1` [CLONIDINE], the Ki was found to be 0.55 µM.

`C[C@]12C[C@H](O)[C@H]3[C@@H](CCC4=CC(=O)CC[C@@]43C)[C@@H]1CC[C@@H]2C(=O)CO` [CORTICOSTERONE] returned a Ki of 7.02 µM. Molecule `CNCCCN1c2ccccc2CCc2ccccc21` [DESIPRAMINE] showed a Ki of 5.36 µM. The same measure, in the same setting: the same measure for `Cc1ncc2n1-c1ccc(Cl)cc1C(c1ccccc1F)=NC2` [MIDAZOLAM]: 3.7 µM. `CNC(=O)c1cccnc1` [NICOTINYL METHYLAMIDE] showed a Ki of 7700 µM. Same read-out and setting: the same measure for `CCN(CC)CCNC(=O)c1ccc(N)cc1` [PROCAINAMIDE]: 73.9 µM; for `CCCCC[N+](CCCCC)(CCCCC)CCCCC` [TETRAPENTYLAMMONIUM]: 7.46 µM. The molecule `CC[N+](CC)(CC)CC` [TETRYLAMMONIUM] gave an inhibition constant (Ki) of 161 µM. Same read-out and setting: the same measure for `CC(=O)O[C@H]1C[C@@H]2CC[C@@H]3[C@H](CC[C@@]4(C)[C@H]3C[C@H]([N+]3(C)CCCCC3)[C@@H]4OC(C)=O)[C@@]2(C)C[C@@H]1N1CCCCC1` [VECURONIUM]: 232 µM.

Another data set deals with T1, Solute carrier family 22 member 1. In words: TP_TRANSPORTER: inhibition of TEA uptake (TEA: 5 uM, Amantadine: 100 uM) in OCT1-expressing HeLa cells. The class given is functional, cell-based.
Consider `NC12CC3CC(CC(C3)C1)C2` [AMANTADINE], for which the Activity result was “inhibitor [(at a rough estimate) 60 % of control]”.

Substrate in the next data set: CC[N+](CC)(CC)CC
In words: cells, lysate or membranes named.
For the molecule B1, the Km amounted to 229 µM.
